# Legend:
# HCC1569 = test: cells; type: functional, cell-based; conditions: Homo sapiens;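 further: growth inhibition of human HCC1569 cells, read out with a cell viability assay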
# Description: SANGER: Inhibition of human HCC1569 cell growth in a cell viability assay.
# Ca9-22 = test: cells; type: functional, cell-based; conditions: Homo sapiens;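 further: growth inhibition of Ca9-22 cells, read out with a cell viability assay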
# Description: SANGER: Inhibition of human Ca9-22 cell growth in a cell viability assay.
# SU-DHL-1 = test: SANGER: Inhibition of human SU-DHL-1 cell growth in a cell viability assay.; type: functional, cell-based; conditions: Homo sapiens, SU-DHL-1
# EVSA-T = test: cells; type: functional, cell-based, Homo sapiens; conditions: Homo sapiens, EVSA-T;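 further: growth inhibition of EVSA-T cells, read out with a cell viability assay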
# Description: SANGER: Inhibition of human EVSA-T cell growth in a cell viability assay.
# 5637 = test: cells; type: functional, cell-based; conditions: Homo sapiens
# Description: SANGER: Inhibition of human 5637 cell growth in a cell viability assay.
# GAMG = test: cells; type: functional, cell-based; conditions: Homo sapiens;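 further: cell growth inhibition measured by a viability assay in the GAMG human cell line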
# Description: SANGER: Inhibition of human GAMG cell growth in a cell viability assay.
# SAS = test: cells; type: functional, cell-based; conditions: Homo sapiens;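 further: growth inhibition of SAS cells, read out with a cell viability assay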
# Description: SANGER: Inhibition of human SAS cell growth in a cell viability assay.
# DMS-273 = test: cells; type: functional, cell-based; conditions: Homo sapiens
# Description: SANGER: Inhibition of human DMS-273 cell growth in a cell viability assay.
# NCI-H889 = test: cells; type: functional, cell-based, Homo sapiens; conditions: Homo sapiens, NCI-H889;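 further: cell growth inhibition of the cell line, read out with a viability assay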
# Description: SANGER: Inhibition of human NCI-H889 cell growth in a cell viability assay.
# NCI-H2122 = test: cells; type: functional, cell-based; conditions: Homo sapiens;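 further: growth inhibition of the cells, read out with a cell viability assay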
# Description: SANGER: Inhibition of human NCI-H2122 cell growth in a cell viability assay.
# ECC4 = test: cells; type: functional, cell-based, Homo sapiens; conditions: Homo sapiens, ECC4;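 further: growth inhibition of ECC4 cells, read out with a cell viability assay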
# Description: SANGER: Inhibition of human ECC4 cell growth in a cell viability assay.
# NCI-H1563 = test: cells; type: functional, cell-based; conditions: Homo sapiens;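 further: growth inhibition of human NCI-H1563 cells, read out with a cell viability assay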
# Description: SANGER: Inhibition of human NCI-H1563 cell growth in a cell viability assay.
# SF-295 = test: cells; type: functional, cell-based; conditions: Homo sapiens;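 further: growth inhibition of SF-295 cells, read out with a cell viability assay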
# Description: SANGER: Inhibition of human SF295 cell growth in a cell viability assay.
# MC-IXC = test: cells; type: functional, cell-based; conditions: Homo sapiens;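 further: growth inhibition of MC-IXC cells, read out with a cell viability assay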
# Description: SANGER: Inhibition of human MC-IXC cell growth in a cell viability assay.
# REH = test: cells; type: functional, cell-based, Homo sapiens; conditions: Homo sapiens, REH;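 further: growth inhibition of REH cells determined with a cell viability read-out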
# Description: SANGER: Inhibition of human REH cell growth in a cell viability assay.
# NCI-H345 = test: cells; type: functional, cell-based, Homo sapiens; conditions: Homo sapiens, NCI-H345;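 further: growth inhibition of NCI-H345 cells measured with a cell viability assay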
# Description: SANGER: Inhibition of human NCI-H345 cell growth in a cell viability assay.
# KYSE-150 cell line = test: cells; type: functional, cell-based; conditions: Homo sapiens;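 further: growth inhibition of human KYSE-150 cells, read out with a cell viability assay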
# Description: SANGER: Inhibition of human KYSE-150 cell growth in a cell viability assay.
# BL-70 = test: SANGER: Inhibition of human BL-70 cell growth in a cell viability assay.; type: functional, cell-based; conditions: Homo sapiens, BL-70
# MDA-MB-361 = test: cells; type: functional, cell-based; conditions: Homo sapiens
# T-24 = test: cells; type: functional, cell-based; conditions: Homo sapiens;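 further: growth inhibition of T-24 cells, read out with a cell viability assay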
# Description: SANGER: Inhibition of human T-24 cell growth in a cell viability assay.
# U-251 = test: cells; type: functional, cell-based; conditions: Homo sapiens;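 further: growth inhibition of human U-251 cells, read out through a cell viability assay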
# Description: SANGER: Inhibition of human U251 cell growth in a cell viability assay.
# C3A = test: cells; type: functional, cell-based; conditions: Homo sapiens;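 further: growth inhibition of C3A human cells, quantified with a cell viability readout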
# Description: SANGER: Inhibition of human C3A cell growth in a cell viability assay.
# LC-1F = test: cells; type: functional, cell-based, Homo sapiens; conditions: Homo sapiens, LC-1F;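 further: growth inhibition of human LC-1F cells, read out with a cell viability assay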
# Description: SANGER: Inhibition of human LC-1F cell growth in a cell viability assay.
# 639-V = test: cells; type: functional, cell-based; conditions: Homo sapiens;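 further: growth inhibition of 639-V cells, read out with a cell viability assay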
# Description: SANGER: Inhibition of human 639-V cell growth in a cell viability assay.
# BFTC-905 = test: cells; type: functional, cell-based; conditions: Homo sapiens
# Description: SANGER: Inhibition of human BFTC-905 cell growth in a cell viability assay.
# EFO-21 = test: cells; type: functional, cell-based; conditions: Homo sapiens;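 further: growth inhibition of EFO-21 cells measured with a viability assay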
# Description: SANGER: Inhibition of human EFO-21 cell growth in a cell viability assay.
# HT-1080 = test: cells; type: functional, cell-based; conditions: Homo sapiens
# Description: SANGER: Inhibition of human HT-1080 cell growth in a cell viability assay.
# SW-620 = test: cells; type: functional, cell-based; conditions: Homo sapiens;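 further: growth inhibition of human SW-620 cells, measured by a cell viability assay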
# Description: SANGER: Inhibition of human SW620 cell growth in a cell viability assay.
# NCI-H661 = test: cells; type: functional, cell-based; conditions: Homo sapiens;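 further: cell viability assay read-out, IC50 being the concentration that inhibits growth of the cells by half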
# Description: SANGER: Inhibition of human NCI-H661 cell growth in a cell viability assay.
# PA-1 = test: cells; type: functional, cell-based; conditions: Homo sapiens;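 further: IC50 for suppression of PA-1 cell proliferation, determined with a cell viability read-out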
# Description: SANGER: Inhibition of human PA-1 cell growth in a cell viability assay.
# VM-CUB-1 = test: cells; type: functional, cell-based; conditions: Homo sapiens;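 further: cell viability assay measuring growth inhibition of the human VM-CUB-1 cell line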
# Description: SANGER: Inhibition of human VM-CUB-1 cell growth in a cell viability assay.
# CAL-85-1 = test: cells; type: functional, cell-based; conditions: Homo sapiens;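 further: growth inhibition of human CAL-85-1 cells, read out with a cell viability assay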
# Description: SANGER: Inhibition of human CAL-85-1 cell growth in a cell viability assay.
# NCI-H2452 = test: cells; type: functional, cell-based; conditions: Homo sapiens;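 further: growth inhibition of NCI-H2452 cells, read out with a cell viability assay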
# Description: SANGER: Inhibition of human NCI-H2452 cell growth in a cell viability assay.
# 786-0 = test: cells; type: functional, cell-based; conditions: Homo sapiens
# Description: SANGER: Inhibition of human 786-0 cell growth in a cell viability assay.
# FTC-133 = test: cells; type: functional, cell-based; conditions: Homo sapiens
# HuCCT-1 = test: cells; type: functional, cell-based, HuCCT1; conditions: Homo sapiens;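 further: growth inhibition of HuCCT-1 cells, read out by a cell viability assay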
# Description: SANGER: Inhibition of human HuCCT1 cell growth in a cell viability assay.
# 8505C = test: cells; type: functional, cell-based; conditions: Homo sapiens
# Description: SANGER: Inhibition of human 8505C cell growth in a cell viability assay.
# NB1 = test: cells; type: functional, cell-based, Homo sapiens; conditions: Homo sapiens, NB1;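 further: reduction of NB1 cell proliferation, read out with a viability assay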
# Description: SANGER: Inhibition of human NB1 cell growth in a cell viability assay.
# HuTu80 = test: cells; type: functional, cell-based, Homo sapiens, HUTU-80; conditions: Homo sapiens, HuTu80;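 further: growth inhibition of HuTu80 human cells, determined with a cell viability readout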
# Description: SANGER: Inhibition of human HUTU-80 cell growth in a cell viability assay.
# Daudi = test: cells; type: functional, cell-based, Homo sapiens; conditions: Homo sapiens, Daudi;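 further: growth inhibition of Daudi cells, read out by a viability assay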
# Description: SANGER: Inhibition of human Daudi cell growth in a cell viability assay.
# SBC-5 = test: cells; type: functional, cell-based; conditions: Homo sapiens;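 further: cell viability assay read-out, IC50 is the concentration that inhibits growth of the cells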
# Description: SANGER: Inhibition of human SBC-5 cell growth in a cell viability assay.
# CAMA-1 = test: cells; type: functional, cell-based; conditions: Homo sapiens;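 further: growth inhibition of CAMA-1 cells, read out with a cell viability assay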
# Description: SANGER: Inhibition of human CAMA-1 cell growth in a cell viability assay.
# SW756 = test: cells; type: functional, cell-based; conditions: Homo sapiens;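 further: growth inhibition of human SW756 cells, read out with a cell viability assay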
# Description: SANGER: Inhibition of human SW756 cell growth in a cell viability assay.
# HLE = test: cells; type: functional, cell-based; conditions: Homo sapiens;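 further: growth inhibition of human HLE cells, read out by a cell viability assay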
# Description: SANGER: Inhibition of human HLE cell growth in a cell viability assay.
# Panc1005 = test: cells; type: functional, cell-based; conditions: Homo sapiens;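 further: growth inhibition of human PANC-10-05 cells, measured by a cell viability assay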
# Description: SANGER: Inhibition of human PANC-10-05 cell growth in a cell viability assay.
# COR-L105 = test: cells; type: functional, cell-based; conditions: Homo sapiens
# Description: SANGER: Inhibition of human COR-L105 cell growth in a cell viability assay.
# NCI-H2196 = test: cells; type: functional, cell-based, Homo sapiens; conditions: Homo sapiens, NCI-H2196; read-out: IC50;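 further: cell viability assay used as the readout of growth inhibition in NCI-H2196 cells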
# Description: SANGER: Inhibition of human NCI-H2196 cell growth in a cell viability assay.
# CAL-12T = test: cells; type: functional, cell-based; conditions: Homo sapiens;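 further: growth inhibition of human CAL-12T cells, read out with a cell viability assay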
# Description: SANGER: Inhibition of human CAL-12T cell growth in a cell viability assay.
# SUP-T1 = test: cells; type: functional, cell-based, Homo sapiens; conditions: Homo sapiens, SUP-T1;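 further: growth inhibition of human SUP-T1 cells, read out as cell viability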
# Description: SANGER: Inhibition of human SUP-T1 cell growth in a cell viability assay.
# HCC1419 = test: cells; type: functional, cell-based; conditions: Homo sapiens;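 further: growth inhibition of human HCC1419 cells, read out as cell viability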
# Description: SANGER: Inhibition of human HCC1419 cell growth in a cell viability assay.
# NCI-H1573 = test: cells; type: functional, cell-based; conditions: Homo sapiens;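 further: growth inhibition of NCI-H1573 cells, read out with a cell viability assay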
# Description: SANGER: Inhibition of human NCI-H1573 cell growth in a cell viability assay.
# ARH-77 = test: cells; type: functional, cell-based, Homo sapiens; conditions: Homo sapiens, ARH-77;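 further: growth inhibition of ARH-77 cells, read out by a cell viability assay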
# Description: SANGER: Inhibition of human ARH-77 cell growth in a cell viability assay.
# T47D = test: cells; type: functional, cell-based; conditions: Homo sapiens;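 further: growth inhibition of human T47D cells, measured with a cell viability assay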
# Description: SANGER: Inhibition of human T47D cell growth in a cell viability assay.
# G-361 = test: cells; type: functional, cell-based; conditions: Homo sapiens
# CA46 = test: cells; type: functional, cell-based, Homo sapiens; conditions: Homo sapiens, CA46;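 further: growth inhibition of human CA46 cells, read out by a cell viability assay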
# Description: SANGER: Inhibition of human CA46 cell growth in a cell viability assay.
# UACC-62 = test: cells; type: functional, cell-based; conditions: Homo sapiens;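 further: growth inhibition of human UACC-62 cells, read out by a cell viability assay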
# Description: SANGER: Inhibition of human UACC-62 cell growth in a cell viability assay.
# SW1710 = test: cells; type: functional, cell-based; conditions: Homo sapiens;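 further: growth inhibition of SW1710 cells, determined with a cell viability assay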
# Description: SANGER: Inhibition of human SW1710 cell growth in a cell viability assay.
# NCI-H28 = test: cells; type: functional, cell-based; conditions: Homo sapiens;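 further: growth inhibition of human NCI-H28 cells, read out as cell viability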
# Description: SANGER: Inhibition of human NCI-H28 cell growth in a cell viability assay.
smiles,measurement,setting,value
CCCCCCCCCCCC1=C(O)C(=O)C=C(O)C1=O [EMBELIN],IC50,HCC1569,10.3 µM
same,IC50,Ca9-22,12.4 µM
same,IC50,SU-DHL-1,> 32 µM
same,IC50,EVSA-T,> 32 µM
same,IC50,5637,13.2 µM
same,IC50,GAMG,9.09 µM
same,IC50,SAS,16.8 µM
same,IC50,DMS-273,4.06 µM
same,IC50,NCI-H889,> 32 µM
same,IC50,NCI-H2122,2.81 µM
same,IC50,ECC4,23.8 µM
same,IC50,NCI-H1563,> 32 µM
same,IC50,SF-295,1.75 µM
same,IC50,MC-IXC,5.39 µM
same,IC50,REH,8.62 µM
same,IC50,NCI-H345,> 32 µM
same,IC50,KYSE-150 cell line,12.1 µM
same,IC50,BL-70,5.83 µM
same,IC50,MDA-MB-361,19.6 µM
same,IC50,T-24,> 32 µM
same,IC50,U-251,9.69 µM
same,IC50,C3A,15.4 µM
same,IC50,LC-1F,31.2 µM
same,IC50,639-V,> 32 µM
same,IC50,BFTC-905,5.03 µM
same,IC50,EFO-21,15.6 µM
same,IC50,HT-1080,4.76 µM
same,IC50,SW-620,28.8 µM
same,IC50,NCI-H661,19.2 µM
same,IC50,PA-1,2.32 µM
same,IC50,VM-CUB-1,10.8 µM
same,IC50,CAL-85-1,7.81 µM
same,IC50,NCI-H2452,> 32 µM
same,IC50,786-0,8.64 µM
same,IC50,FTC-133,> 32 µM
same,IC50,HuCCT-1,9.92 µM
same,IC50,8505C,14.1 µM
same,IC50,NB1,> 32 µM
same,IC50,HuTu80,2.35 µM
same,IC50,Daudi,5.75 µM
same,IC50,SBC-5,> 32 µM
same,IC50,CAMA-1,7.09 µM
same,IC50,SW756,> 32 µM
same,IC50,HLE,5.93 µM
same,IC50,Panc1005,> 32 µM
same,IC50,COR-L105,22.3 µM
same,IC50,NCI-H2196,> 32 µM
same,IC50,CAL-12T,9.73 µM
same,IC50,SUP-T1,7.32 µM
same,IC50,HCC1419,> 32 µM
same,IC50,NCI-H1573,14.2 µM
same,IC50,ARH-77,16.4 µM
same,IC50,T47D,> 32 µM
same,IC50,G-361,5.9 µM
same,IC50,CA46,18.7 µM
same,IC50,UACC-62,1.75 µM
same,IC50,SW1710,14.1 µM
same,IC50,NCI-H28,26 µM
COc1ccc(-c2cc3nccn3c(Nc3ncccc3C(N)=O)n2)cc1OC,IC50,HCC1569,> 8 µM
same,IC50,Ca9-22,> 8 µM
same,IC50,SU-DHL-1,> 8 µM
same,IC50,EVSA-T,> 8 µM
same,IC50,5637,> 8 µM
same,IC50,GAMG,> 8 µM
same,IC50,SAS,> 8 µM
same,IC50,DMS-273,6.61 µM
same,IC50,NCI-H889,> 8 µM
same,IC50,NCI-H2122,1.28 µM
same,IC50,ECC4,> 8 µM
same,IC50,NCI-H1563,> 8 µM
same,IC50,SF-295,> 8 µM
same,IC50,MC-IXC,> 8 µM
same,IC50,REH,2.25 µM
same,IC50,NCI-H345,> 8 µM
same,IC50,KYSE-150 cell line,6.05 µM
same,IC50,BL-70,0.671 µM
same,IC50,MDA-MB-361,> 8 µM
same,IC50,T-24,> 8 µM
same,IC50,U-251,> 8 µM
same,IC50,C3A,6.53 µM
same,IC50,LC-1F,> 8 µM
same,IC50,639-V,1.43 µM
same,IC50,BFTC-905,2.29 µM
same,IC50,EFO-21,> 8 µM
same,IC50,HT-1080,3.23 µM
same,IC50,SW-620,3.31 µM
same,IC50,NCI-H661,> 8 µM
same,IC50,PA-1,1.01 µM
same,IC50,VM-CUB-1,> 8 µM
same,IC50,CAL-85-1,3.33 µM
same,IC50,NCI-H2452,> 8 µM
same,IC50,786-0,1.36 µM
same,IC50,FTC-133,> 8 µM
same,IC50,HuCCT-1,> 8 µM
same,IC50,8505C,1.77 µM
same,IC50,NB1,1.71 µM
same,IC50,HuTu80,1.81 µM
same,IC50,Daudi,0.607 µM
same,IC50,SBC-5,> 8 µM
same,IC50,CAMA-1,> 8 µM
same,IC50,SW756,> 8 µM
same,IC50,HLE,3.23 µM
same,IC50,Panc1005,4.15 µM
same,IC50,COR-L105,1.14 µM
same,IC50,NCI-H2196,> 8 µM
same,IC50,CAL-12T,0.496 µM
same,IC50,SUP-T1,2.1 µM
same,IC50,HCC1419,> 8 µM
same,IC50,NCI-H1573,> 8 µM
same,IC50,ARH-77,3.06 µM
same,IC50,T47D,> 8 µM
same,IC50,G-361,4.3 µM
same,IC50,CA46,1.08 µM
same,IC50,UACC-62,> 8 µM
same,IC50,SW1710,1.66 µM
same,IC50,NCI-H28,> 8 µM
